Assay results from patent US6368788B1 (priority 1987, dated 2002).

Legend:
[1] = tested on: Mycobacterium tuberculosis; parameters: species or system human; settings: in vivo
lymphocytes = assay: In vitro incubation of pyoderma patients' lymphocytes with 0.01% L-Glu-L-Trp; type: cell-based, human; settings: 100 μg/mL in vitro
Rauscher MuLV = assay: Anti-viral response to Rauscher MuLV; type: in vivo, mice; settings: 50 μg/kg
Source text: Innate mechanisms of anti-viral immunity are important to survival of the host. The Rauscher murine leukemia virus (MuLV) is an example of a highly virulent animal retrovirus infection, first isolated and characterized by Dr. Rauscher from BALB/c mouse tissues in 1962. […] The virus employed in present GLP/blinded study was a murine leukemia complex known to induce progressive erythroleukemia in mice (i.e., Rauscher MuLV and replication-defective Rauscher spleen focus-forming virus). Disease manifested within about 6 days with death by about 50 days. Measurements of splenomegaly, blood reverse transcriptase, virus plaque assays (i.e., XC-plaque assay for viremia using SC-1 host cells) and serum anti-viral antibody titers were used to assess infection. Spleens achieved about 2.0 grams in weight within 21 days of infection, as compared with a normal spleen weights in an uninfected animals of about 0.1 gram.
Mice were inoculated with Rauscher MuLV complex (0.1 ml/7.8×10^4 PFU/mL) on day 0 and sacrificed on day 21. Test groups were comprised of 10 mice and control groups 6 mice. Control articles included saline and AZT (in drinking water at about 1.25 mg/mouse/day≈63 mg/kg/day/mouse). […] A non-infected group of mice was also sacrificed on day 21 to provide normal control values.
In EXAMPLE 38, SC-1 cells were originally derived from murine embryos, and XC cells (a rat tumor cell line induced by Rous Sarcoma Virus) were obtained from the ATCC in Rockville, Md.

E-RFC = assay: Increase in no. E-RFC in vitro after incubation with L-Glu-L-Trp (breast cancer patients); type: cell-based, human
Description: (§1) Thirty six patients with breast cancer were treated with conventional radiation therapy (i.e., single doses of about 2-3 Gy daily for 10 days; total cumulative patient dose of 20-30 Gy). Following radiotherapy the patients were treated with L-Glu-L-Trp by injection of daily dosages im of 100 μg. The patients had been previously treated with radiation therapy (single doses 2 Gy; total dose 20-30 Gy).
Ram erythrocytes (E) were washed 4× in saline (2000 rpm/10 min.) and suspended at a final concentration of 1% in Medium 199. For determinations of the percentage of E-rosette forming T-lymphocytes (E-RFC) in a sample, 0.1 mL of a prepared lymphocyte suspension (2.5×10^6/ml) was incubated with 0.1 mL of the 1% ram erythrocyte suspension at 37° C. for 10 min., centrifuged at 800-1000 rpm for 5 min., maintained at 4° C. for 2 hrs., and finally resuspended and counted in a Goryaev chamber. Activated T-lymphocytes (i.e., having increased E-RFC capacity) were determined by mixing the test lymphocyte suspension with E, immediately centrifuging for 5 min. at 800-1000 rpm, resuspending the cells and counting the rosettes formed in a Goryaev chamber.

[2] = Drug allergies to antibiotics; parameters: species or system human; settings: in vivo
Description: L-Glu-L-Trp was administered to 76 patients having clinical histones of allergies to antibiotics, during the period of administration of the antibiotic. A control group consisted of 43 patients with similar antibiotic drug allergies. L-Glu-L-Trp was administered im on a daily basis for 5-10 days at a dosage of 100 μg, or alternatively, intranasally at a dosage of 1 μg/kg over the same 5-10 day period. […] Allergic reactions were pronounced in the control group with signs of drug intolerance.

[3] = Frequently ill children with respiratory infection, asthma and allergy (Protocol C); type: in vivo, human
[4] = tested on: E-receptors on aged thymocytes; assay: Expression of E-receptors on aged thymocytes; type: cell-based, guinea pigs; settings: for E-RFC (%): aged thymocytes
Source text: Effects of L-Glu-L-Trp on expression of E-receptors on “aged” thymocytes was investigated in a manner similar to that in EXAMPLE 26, above, but using thymocytes obtained from old male guinea pigs (700-800 g). In aged animals it is recognized that the percentage of thymocytes forming rosettes with rabbit erythrocytes is reduced, and cell surface E-receptors are likewise reduced. For these studies aged thymocytes were isolated in Medium 199 from 42 guinea pigs, and E-RFC determined as described by Stadecker, M. J., et al., J. Immunol. 111(8):4061-4065 (1973), incorporated herein by reference. L-Glu-L-Trp was dissolved in 0.9% (w/v) NaCl and added to cultures of thymocytes at concentrations of 1, 0.01, and 0.0001 mg/ml.

[5] = tested on: peripheral blood lymphocytes; assay: Breast cancer patients after radiotherapy treated with L-Glu-L-Trp 100 μg im daily; type: in vivo, human
Description: as §1

Transfusion reactions = assay: Transfusion reactions; parameters: species or system human; settings: in vivo
Description: Seventy-six patients (76) requiring hemotransfusion therapy with allogeneic blood were treated with L-Glu-L-Trp in the post-operative period, starting at day 4-6 post-op. Seventy-two patients (72) in a control group received conventional post-operative treatment. L-Glu-L-Trp treatment was administered as a single daily im dose of 100 μg on each of 5 consecutive days, or alternatively, at a dose of 1 μg/kg delivered on the same schedule by the intranasal route.

Herpes Zoster = settings: on the average

With L-Glu-L-Trp the “Clinical outcome at 2 months” value [1] was “disappearance of toxic symptoms, a resorption of pulmonary infiltrates, and a resolution of pulmonary cavities”, the “Considerable Improvement, % of patients” value [1] was 24% and the “Considerable Improvement, No. of patients” value [1] was 9. The “Improvement, % of patients” value [1] was 73%, the “Improvement, No. of patients” value [1] was 27 and the “No Change, % of patients” value [1] was 3%. For the same substance, the “No Change, No. of patients” value [1] was 1, the “Patients with closure of degeneration foci and cavities in the lungs” value [1] was 35 of the 37 and the “Patients with “improvement”” value [1] was 27. The Response rate [1] was 97%, the E-RFC (lymphocytes) was 73.3±2.26% and the “OKT4+ lymphocytes” value (lymphocytes) was 18.2±1.6%. For the same substance, the “OKT8+ lymphocytes” value (lymphocytes) was 17.9±1.4%, the Viremia (Rauscher MuLV) was “significantly decreased viremia” and the “Increase in no. E-RFC in vitro after incubation with L-Glu-L-Trp” value (shortened to “Increase in no. E-RFC in vitro”) (E-RFC; cells taken After L-Glu-L-Trp therapy) was 1.27 ± 0.14. For the same substance, the “Increase in no. E-RFC in vitro” value (E-RFC; cells taken After Radiotherapy) was 1.19 ± 0.13, the “Increase in no. E-RFC in vitro” value (E-RFC; cells taken Before Radiotherapy) was 1.23 ± 0.15 and the “Patients in whom development of allergic reactions was prevented” value [2] was 70%. The “Children with a decrease in the number of respiratory infections” value ([3]; 6-12 months) was 92.9%, the “T-lymphocytes in peripheral blood” value ([3]; after first course) was “statistically significant increase was noted in both the absolute number and percentage of T-lymphocytes” and the “Reduction in attacks of bronchial asthma” value ([3]; asthma patients) was 4.2 fold. For the same substance, the “Average reduction in the number of infections” value ([3]; in vivo) was 3.6 fold, the “Decrease of average length of illness” value ([3]; in vivo) was 4 to 5 days and the “Patients in whom food allergies disappeared” value ([3]; in vivo) was 67.8%. For the same substance, the “Percentage of E-RFC” value ([4]; 1 mg/mL) was “statistically significant increase in the percentage of E-RFC”, the “E-RFC (%)” value ([4]; Conc. 0.0001 mg/ml) was 50.3 ± 4.2% and the “E-RFC (%)” value ([4]; Conc. 0.01 mg/ml) was 47.8 ± 3.9%. For the same substance, the “E-RFC (%)” value ([4]; Conc. 1 mg/ml) was 54.6 ± 4.2 %, the “B-lymphocyte (Ig+)” value [5] was 0.17 ± 0.02 ×10^9/L and the “B-lymphocyte (Ig+), Ratio Post-Rad/Pre-Rad Value” [5] was “(1.1)”. The “B-lymphocyte (Ig+), Ratio Post-Treat/Pre-Treat Value” [5] was “(1.55)”, the C3-complement [5] was 0.68 ± 0.04 g/L and the DTH to tuberculin [5] was 8.7 ± 0.6 mm. The “DTH to tuberculin, Ratio Post-Rad/Pre-Rad Value” [5] was “(1.2)”, the “Granulocyte Cation Proteins” value [5] was 1.49 ± 0.12 and the “Granulocyte Phagocytic Index” value [5] was 3.7 ± 0.2. The “LMI with ConA” value [5] was 71 ± 5 %, the Lymphocytes [5] was 1.72 ± 0.21 ×10^9/L and the “Lymphocytes, Ratio Post-Rad/Pre-Rad Value” [5] was “(1.1)”. The “Lymphocytes, Ratio Post-Treat/Pre-Treat Value” [5] was “(2.18)”, the “OKT4+/OKT8+” value [5] was 1.86 ± 0.17 and the T-Lymphocytes [5] was 0.92 ± 0.12 ×10^9/L. For the same substance, the “T-helpers (OKT4+)” value [5] was 0.39 ± 0.04 ×10^9/L, the “T-helpers (OKT4+), Ratio Post-Rad/Pre-Rad Value” [5] was “(1.3)” and the “T-helpers (OKT4+), Ratio Post-Treat/Pre-Treat Value” [5] was “(3.25)”. The “T-lymphocytes, Ratio Post-Rad/Pre-Rad Value” [5] was “(1.1)”, the “T-lymphocytes, Ratio Post-Treat/Pre-Treat Value” [5] was “(2.88)” and the “T-suppressors (OKT8+)” value [5] was 0.21 ± 0.03 ×10^9/L. The “T-suppressors (OKT8+), Ratio Post-Rad/Pre-Rad Value” [5] was “(0.8)”, the “T-suppressors (OKT8+), Ratio Post-Treat/Pre-Treat Value” [5] was “(1.31)” and the ““Active” T-lymphocytes” value [5] was 0.52 ± 0.07 ×10^9/L. The ““Active” T-lymphocytes, Ratio Post-Rad/Pre-Rad Value” [5] was “(1.1)”, the ““Active” T-lymphocytes, Ratio Post-Treat/Pre-Treat Value” [5] was “(2.74)” and the Clinical outcome (Transfusion reactions) was “None of L-Glu-L-Trp treated patients showed clinical manifestations of allogeneic hemotransfusion reactions”. The “Healing earlier than in the control group” value (Herpes Zoster) was 40%.
